Measurements from patent publication US6433188B1, “Fused heteroaromatic glucokinase activators” (priority 2000, dated 2002).

| melting point [°C] | Structure (SMILES) |
| --- | --- |
| 104 to 105 | O=C(Nc1nc2ccccc2s1)C(CC1CCCC1)c1ccc(Cl)c(Cl)c1 (stereo not drawn) [Example 2, N-Benzothiazol-2-yl-3-cyclopentyl-2-(3,4-dichloro-phenyl)-propionamide] |
| 193.4 to 196.8 | O=C(Nc1nc2ccccc2[nH]1)C(CC1CCCC1)c1ccc(Cl)c(Cl)c1 (stereo not drawn) [Example 8, N-(1H-Benzimidazol-2-yl)-3-cyclopentyl-2-(3,4-dichloro-phenyl)-propionamide] |
| 172 to 173 | O=C(Nc1ccc2ccccc2n1)C(CC1CCCC1)c1ccc(Cl)c(Cl)c1 (stereo not drawn) [Example 10, 3-Cyclopentyl-2-(3,4-dichloro-phenyl)-N-quinolin-2-yl-propionamide] |
| 206 to 209 | CS(=O)(=O)c1ccc(C(CC2CCCC2)C(=O)Nc2nc3ccccc3s2)cc1 (stereo not drawn) [Example 12(A), N-Benzothiazol-2-yl-3-cyclopentyl-2-(4-methanesulfonyl-phenyl)-propionamide] |
| 230 to 232 | CS(=O)(=O)c1ccc([C@@H](CC2CCCC2)C(=O)Nc2nc3ccccc3[nH]2)cc1 [Example 13, N-(1H-Benzimidazol-2-yl)-3-cyclopentyl-2(R)-(4-methanesulfonyl-phenyl)-propionamide] |
| 108 to 112 | CS(=O)(=O)c1ccc(C(CC2CCCC2)C(=O)Nc2nc3ccccc3o2)cc1C#N (stereo not drawn) [Example 27, N-Benzoxazol-2-yl-2-(3-cyano-4-methanesulfonyl-phenyl)-3-cyclopentyl-propionamide] |
| 95 to 99 | CS(=O)(=O)c1ccc(C(CC2CCCC2)C(=O)Nc2ccc3ccccc3n2)cc1C#N (stereo not drawn) [Example 29, 2-(3-Cyano-4-methanesulfonyl-phenyl)-3-cyclopentyl-N-quinolin-2-yl-propionamide] |
| 105 to 110 | CS(=O)(=O)c1ccc(C(CC2CCCC2)C(=O)Nc2nc3ccccc3s2)cc1C(F)(F)F (stereo not drawn) [Example 31(A), N-Benzothiazol-2-yl-3-cyclopentyl-2-(4-methanesulfonyl-3-trifluoromethyl-phenyl)-propionamide] |
| 113 to 117 | CS(=O)(=O)c1ccc(C(CC2CCCC2)C(=O)Nc2nc3ccccc3[nH]2)cc1[N+](=O)[O-] (stereo not drawn) [Example 34, N-(1H-Benzimidazol-2-yl)-3-cyclopentyl-2-(4-methanesulfonyl-3-nitro-phenyl)-propionamide] |
| 102 to 106 | CS(=O)(=O)c1ccc(C(CC2CCCC2)C(=O)Nc2ccc3ccccc3n2)cc1[N+](=O)[O-] (stereo not drawn) [Example 35, 3-Cyclopentyl-2-(4-methanesulfonyl-3-nitro-phenyl)-N-quinolin-2-yl-propionamide] |

Second part, the compound before the results:

| Structure (SMILES) | melting point [°C] |
| --- | --- |
| O=C(Nc1nc2c(s1)CCCC2)C(CC1CCCC1)c1ccc(Cl)c(Cl)c1 (stereo not drawn) [Example 1, 3-Cyclopentyl-2-(3,4-dichloro-phenyl)-N-(4,5,6,7-tetrahydro-benzothiazol-2-yl)-propionamide] | 170 to 171 |
| O=C(Nc1nc2ccc(F)cc2s1)C(CC1CCCC1)c1ccc(Cl)c(Cl)c1 (stereo not drawn) [Example 4, 3-Cyclopentyl-2-(3,4-dichloro-phenyl)-N-(6-fluoro-benzothiazol-2-yl)-propionamide] | 131 to 133 |
| CS(=O)(=O)c1ccc([C@@H](CC2CCCC2)C(=O)Nc2nc3ccccc3s2)cc1 [Example 14, N-Benzothiazol-2-yl-3-cyclopentyl-2(R)-(4-methanesulfonyl-phenyl)-propionamide] | 100 to 105 |
| CS(=O)(=O)c1ccc([C@@H](CC2CCCC2)C(=O)Nc2nc3ccccc3[nH]2)cc1Cl [Example 21, N-(1H-Benzimidazol-2-yl)-2(R)-(3-chloro-4-methanesulfonyl-phenyl)-3-cyclopentyl-propionamide] | > 215 |
| CS(=O)(=O)c1ccc(C(CC2CCCC2)C(=O)Nc2nc3ccccc3[nH]2)cc1Br (stereo not drawn) [Example 24(A), N-(1H-Benzimidazol-2-yl)-2-(3-bromo-4-methanesulfonyl-phenyl)-3-cyclopentyl-propionamide] | > 220 |
| CS(=O)(=O)c1ccc(C(CC2CCCC2)C(=O)Nc2ccc3ccccc3n2)cc1Br (stereo not drawn) [Example 25, 2-(3-Bromo-4-methanesulfonyl-phenyl)-3-cyclopentyl-N-quinolin-2-yl-propionamide] | 95 to 100 |
| CS(=O)(=O)c1ccc(C(CC2CCCC2)C(=O)Nc2nc3ccccc3s2)cc1C#N (stereo not drawn) [Example 26, N-Benzothiazol-2-yl-2-(3-cyano-4-methanesulfonyl-phenyl)-3-cyclopentyl-propionamide] | 115 to 118 |
| CS(=O)(=O)c1ccc(C(CC2CCCC2)C(=O)Nc2nc3ccccc3[nH]2)cc1C#N (stereo not drawn) [Example 28, N-(1H-Benzimidazol-2-yl)-2-(3-cyano-4-methanesulfonyl-phenyl)-3-cyclopentyl-propionamide] | 148 to 152 |
| CS(=O)(=O)c1ccc(C(CC2CCCC2)C(=O)Nc2ccc3ccccc3n2)cc1C(F)(F)F (stereo not drawn) [Example 30, 3-Cyclopentyl-2-(4-methanesulfonyl-3-trifluoromethyl-phenyl)-N-quinolin-2-yl-propionamide] | 90 to 95 |
| CS(=O)(=O)c1ccc(C(CC2CCCC2)C(=O)Nc2nc3ccccc3s2)cc1[N+](=O)[O-] (stereo not drawn) [Example 32, N-Benzothiazol-2-yl-3-cyclopentyl-2-(4-methanesulfonyl-3-nitro-phenyl)-propionamide] | 108 to 113 |
| CS(=O)(=O)c1ccc(C(CC2CCCC2)C(=O)Nc2nc3ccccc3o2)cc1[N+](=O)[O-] (stereo not drawn) [Example 33, N-Benzoxazol-2-yl-3-cyclopentyl-2-(4-methanesulfonyl-3-nitro-phenyl)-propionamide] | 106 to 111 |
